Where a name gives a salt, the structure may show the parent alone.
Each compound was assayed against T1, human V1a receptor (Homo sapiens, UniProt P37288) (assay: human V1a receptor binding (3H-Vasopressin SPA, HEK293 membranes)). Conditions: membranes of HEK293 cells transiently transfected with human V1a receptor, Ki by Cheng-Prussoff, read-out: pKi (hV1a) (converted).
T1 construct: expressed in transfected cells; host or cells: HEK293 cells, transiently transfected; membranes prepared
T1 sequence (P37288 whole entry): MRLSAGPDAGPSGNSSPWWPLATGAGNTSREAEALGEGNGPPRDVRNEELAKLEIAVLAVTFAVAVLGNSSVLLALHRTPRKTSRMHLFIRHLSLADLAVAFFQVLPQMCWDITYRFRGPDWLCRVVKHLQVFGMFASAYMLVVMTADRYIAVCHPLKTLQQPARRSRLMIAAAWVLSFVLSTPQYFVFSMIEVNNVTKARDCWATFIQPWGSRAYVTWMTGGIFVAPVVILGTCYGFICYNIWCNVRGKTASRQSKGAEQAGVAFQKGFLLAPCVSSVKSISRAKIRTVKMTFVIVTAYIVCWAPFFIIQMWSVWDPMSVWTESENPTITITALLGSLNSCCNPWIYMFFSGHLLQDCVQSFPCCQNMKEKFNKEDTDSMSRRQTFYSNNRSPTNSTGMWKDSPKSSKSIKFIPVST
Outline: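 HEK293 membranes transiently expressing cloned human V1a receptor, bound to yttrium silicate SPA beads in Tris/NaCl/KCl/CaCl2/MgCl2 buffer. Test compounds in 2% DMSO competed with 3H-vasopressin (4 nM solution added) for 1 h at room temperature; non-specific binding defined with cold vasopressin. IC50 from non-linear fit, Ki via Cheng-Prusoff.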
Work on Cc1nc([C@H]2CC[C@H](c3nnc4n3-c3ccc(Cl)cc3CN(C3CCC3)C4)CC2)no1 [Example 77, trans-8-Chloro-5-cyclobutyl-1-[4-(5-methyl-[1,2,4]oxadiazol-3-yl)-cyclohexyl]-5,6-dihydro-4H-2,3,5,10b-tetraaza-benzo[e]azulene] yielded a Ki of 1.51 nM. Cc1nc([C@H]2CC[C@H](c3nnc4n3-c3ccc(Cl)cc3CN(C3CCCC3)C4)CC2)no1 [Example 78, trans-8-Chloro-5-cyclopentyl-1-[4-(5-methyl-[1,2,4]oxadiazol-3-yl)-cyclohexyl]-5,6-dihydro-4H-2,3,5,10b-tetraaza-benzo[e]azulene] was tested, and the Ki was 5.89 nM. Cc1nc([C@H]2CC[C@H](c3nnc4n3-c3ccc(Cl)cc3CN(CC(F)F)C4)CC2)no1 [Example 79, trans-8-Chloro-5-(2,2-difluoro-ethyl)-1-[4-(5-methyl-[1,2,4]oxadiazol-3-yl)-cyclohexyl]-5,6-dihydro-4H-2,3,5,10b-tetraaza-benzo[e]azulene] gave a Ki of 3.39 nM. CC(=O)N1Cc2cc(Cl)ccc2-n2c(nnc2[C@H]2CC[C@H](c3noc(C)n3)CC2)C1 [Example 80, trans-1-{8-Chloro-1-[4-(5-methyl-[1,2,4]oxadiazol-3-yl)-cyclohexyl]-4H,6H-2,3,5,10b-tetraaza-benzo[e]azulen-5-yl}-ethanone] showed a Ki of 22.9 nM. For Cc1nc([C@H]2CC[C@H](c3nnc4n3-c3ccc(Cl)cc3CN(S(C)(=O)=O)C4)CC2)no1 [Example 81, trans-8-Chloro-5-methanesulfonyl-1-[4-(5-methyl-[1,2,4]oxadiazol-3-yl)-cyclohexyl]-5,6-dihydro-4H-2,3,5,10b-tetraaza-benzo[e]azulene], the Ki was 4.27 nM. Work on Cc1nc([C@H]2CC[C@@H](c3nnc4n3-c3ccc(Cl)cc3CN(C(=O)OC(C)(C)C)C4)CC2)no1 [Example 82, cis-8-Chloro-1-[4-(5-methyl-[1,2,4]oxadiazol-3-yl)-cyclohexyl]-4H,6H-2,3,5,10b-tetraaza-benzo[e]azulene-5-carboxylic acid tert-butyl ester] yielded a Ki of 14.8 nM. For Cc1nc([C@H]2CC[C@@H](c3nnc4n3-c3ccc(Cl)cc3CNC4)CC2)no1 [Example 83, cis-8-Chloro-1-[4-(5-methyl-[1,2,4]oxadiazol-3-yl)-cyclohexyl]-5,6-dihydro-4H-2,3,5,10b-tetraaza-benzo[e]azulene hydrochloride], the Ki was 617 nM. Cc1nc([C@H]2CC[C@@H](c3nnc4n3-c3ccc(Cl)cc3CN(C)C4)CC2)no1 [Example 84, cis-8-Chloro-5-methyl-1-[4-(5-methyl-[1,2,4]oxadiazol-3-yl)-cyclohexyl]-5,6-dihydro-4H-2,3,5,10b-tetraaza-benzo[e]azulene] gave a Ki of 135 nM. Work on CCc1nc([C@H]2CC[C@@H](c3nnc4n3-c3ccc(Cl)cc3CN(C(=O)OC(C)(C)C)C4)CC2)no1 [Example 85, cis-8-Chloro-1-[4-(5-ethyl-[1,2,4]oxadiazol-3-yl)-cyclohexyl]-4H,6H-2,3,5,10b-tetraaza-benzo[e]azulene-5-carboxylic acid tert-butyl ester] yielded a Ki of 40.7 nM. For CCc1nc([C@H]2CC[C@H](c3nnc4n3-c3ccc(Cl)cc3CN(C(=O)OC(C)(C)C)C4)CC2)no1 [Example 86, trans-8-Chloro-1-[4-(5-ethyl-[1,2,4]oxadiazol-3-yl)-cyclohexyl]-4H,6H-2,3,5,10b-tetraaza-benzo[e]azulene-5-carboxylic acid tert-butyl ester], the Ki was 3.09 nM. Compound CCc1nc([C@H]2CC[C@H](c3nnc4n3-c3ccc(Cl)cc3CNC4)CC2)no1 [Example 87, trans-8-Chloro-1-[4-(5-ethyl-[1,2,4]oxadiazol-3-yl)-cyclohexyl]-5,6-dihydro-4H-2,3,5,10b-tetraaza-benzo[e]azulene hydrochloride] has a Ki of 145 nM. In the case of CCc1nc([C@H]2CC[C@H](c3nnc4n3-c3ccc(Cl)cc3CN(C)C4)CC2)no1 [Example 88], the Ki was 14.5 nM. CCc1nc([C@H]2CC[C@@H](c3nnc4n3-c3ccc(Cl)cc3CNC4)CC2)no1 [Example 89, cis-8-Chloro-1-[4-(5-ethyl-[1,2,4]oxadiazol-3-yl)-cyclohexyl]-5,6-dihydro-4H-2,3,5,10b-tetraaza-benzo[e]azulene hydrochloride] showed a Ki of 2750 nM. For CCc1nc([C@H]2CC[C@@H](c3nnc4n3-c3ccc(Cl)cc3CN(C)C4)CC2)no1 [Example 90], the Ki was 295 nM. With CC(C)c1nc([C@H]2CC[C@@H](c3nnc4n3-c3ccc(Cl)cc3CN(C(=O)OC(C)(C)C)C4)CC2)no1 [Example 91, cis-8-Chloro-1-[4-(5-isopropyl-[1,2,4]oxadiazol-3-yl)-cyclohexyl]-4H,6H-2,3,5,10b-tetraaza-benzo[e]azulene-5-carboxylic acid tert-butyl ester] the Ki was 34.7 nM. Work on CC(C)c1nc([C@H]2CC[C@H](c3nnc4n3-c3ccc(Cl)cc3CN(C(=O)OC(C)(C)C)C4)CC2)no1 [Example 92, trans-8-Chloro-1-[4-(5-isopropyl-[1,2,4]oxadiazol-3-yl)-cyclohexyl]-4H,6H-2,3,5,10b-tetraaza-benzo[e]azulene-5-carboxylic acid tert-butyl ester] yielded a Ki of 3.09 nM. CC(C)c1nc([C@H]2CC[C@H](c3nnc4n3-c3ccc(Cl)cc3CNC4)CC2)no1 [Example 93, trans-8-Chloro-1-[4-(5-isopropyl-[1,2,4]oxadiazol-3-yl)-cyclohexyl]-5,6-dihydro-4H-2,3,5,10b-tetraaza-benzo[e]azulene hydrochloride] was tested, and the Ki was 263 nM. In the case of CC(C)c1nc([C@H]2CC[C@H](c3nnc4n3-c3ccc(Cl)cc3CN(C)C4)CC2)no1 [Example 94], the Ki was 19.5 nM. CC(C)c1nc([C@H]2CC[C@@H](c3nnc4n3-c3ccc(Cl)cc3CNC4)CC2)no1 [Example 95, cis-8-Chloro-1-[4-(5-isopropyl-[1,2,4]oxadiazol-3-yl)-cyclohexyl]-5,6-dihydro-4H-2,3,5,10b-tetraaza-benzo[e]azulene hydrochloride] showed a Ki of 2950 nM. For CC(C)c1nc([C@H]2CC[C@@H](c3nnc4n3-c3ccc(Cl)cc3CN(C)C4)CC2)no1 [Example 96], the Ki was 204 nM. Compound Cc1nc([C@H]2CC[C@H](c3nnc4n3-c3ccc(Cl)cc3CN(C(=O)OC(C)(C)C)C4)CC2)oc1Cl [Example 98, trans-8-Chloro-1-[4-(5-chloro-4-methyl-oxazol-2-yl)-cyclohexyl]-4H,6H-2,3,5,10b-tetraaza-benzo[e]azulene-5-carboxylic acid tert-butyl ester] has a Ki of 1.1 nM. Cc1nc([C@H]2CC[C@H](c3nnc4n3-c3ccc(Cl)cc3CNC4)CC2)oc1Cl [Example 99, trans-8-Chloro-1-[4-(5-chloro-4-methyl-oxazol-2-yl)-cyclohexyl]-5,6-dihydro-4H-2,3,5,10b-tetraaza-benzo[e]azulene] was tested, and the Ki was 5.37 nM. In the case of Cc1nc([C@H]2CC[C@H](c3nnc4n3-c3ccc(Cl)cc3CN(C)C4)CC2)oc1Cl [Example 100, trans-8-Chloro-1-[4-(5-chloro-4-methyl-oxazol-2-yl)-cyclohexyl]-5-methyl-5,6-dihydro-4H-2,3,5,10b-tetraaza-benzo[e]azulene], the Ki was 1.1 nM. Cc1nc([C@H]2CC[C@H](c3nnc4n3-c3ccc(Cl)cc3CN(C(=O)OC(C)(C)C)C4)CC2)sc1Cl [Example 101, trans-8-Chloro-1-[4-(5-chloro-4-methyl-thiazol-2-yl)-cyclohexyl]-4H,6H-2,3,5,10b-tetraaza-benzo[e]azulene-5-carboxylic acid tert-butyl ester] was tested, and the Ki was 1.29 nM. Work on Cc1nc([C@H]2CC[C@H](c3nnc4n3-c3ccc(Cl)cc3CNC4)CC2)sc1Cl [Example 102, trans-8-Chloro-1-[4-(5-chloro-4-methyl-thiazol-2-yl)-cyclohexyl]-5,6-dihydro-4H-2,3,5,10b-tetraaza-benzo[e]azulene] yielded a Ki of 3.8 nM. For Cc1nc([C@H]2CC[C@H](c3nnc4n3-c3ccc(Cl)cc3CN(C)C4)CC2)sc1Cl [Example 103, trans-8-Chloro-1-[4-(5-chloro-4-methyl-thiazol-2-yl)-cyclohexyl]-5-methyl-5,6-dihydro-4H-2,3,5,10b-tetraaza-benzo[e]azulene], the Ki was 1.58 nM. Cc1nc([C@H]2CC[C@H](c3nnc4n3-c3ccc(Cl)cc3CN(C(=O)OC(C)(C)C)C4)CC2)sc1C [Example 104, trans-8-Chloro-1-[4-(4,5-dimethyl-thiazol-2-yl)-cyclohexyl]-4H,6H-2,3,5,10b-tetraaza-benzo[e]azulene-5-carboxylic acid tert-butyl ester] showed a Ki of 0.794 nM. With Cc1nc([C@H]2CC[C@H](c3nnc4n3-c3ccc(Cl)cc3CNC4)CC2)sc1C [Example 105, trans-8-Chloro-1-[4-(4,5-dimethyl-thiazol-2-yl)-cyclohexyl]-5,6-dihydro-4H-2,3,5,10b-tetraaza-benzo[e]azulene] the Ki was 21.9 nM. Cc1nc([C@H]2CC[C@H](c3nnc4n3-c3ccc(Cl)cc3CN(C)C4)CC2)sc1C [Example 106, trans-8-Chloro-1-[4-(4,5-dimethyl-thiazol-2-yl)-cyclohexyl]-5-methyl-5,6-dihydro-4H-2,3,5,10b-tetraaza-benzo[e]azulene] gave a Ki of 2.29 nM. In the case of CN1Cc2cc(Cl)ccc2-n2c(nnc2[C@H]2CC[C@H](c3noc4c3CCC4)CC2)C1 [Example 107, trans-8-Chloro-1-[4-(5,6-dihydro-4H-cyclopenta[d]isoxazol-3-yl)-cyclohexyl]-5-methyl-5,6-dihydro-4H-2,3,5,10b-tetraaza-benzo[e]azulene], the Ki was 1.58 nM. For CC(C)(C)OC(=O)N1Cc2cc(Cl)ccc2-n2c(nnc2[C@H]2CC[C@H](c3noc(CO)c3CO)CC2)C1 [Example 108, trans-1-[4-(4,5-Bis-hydroxymethyl-isoxazol-3-yl)-cyclohexyl]-8-chloro-4H,6H-2,3,5,10b-tetraaza-benzo[e]azulene-5-carboxylic acid tert-butyl ester], the Ki was 12.6 nM. Compound Clc1ccc2c(c1)CNCc1nnc([C@H]3CC[C@H](n4cccn4)CC3)n1-2 [Example 110, trans-8-Chloro-1-(4-pyrazol-1-yl-cyclohexyl)-5,6-dihydro-4H-2,3,5,10b-tetraaza-benzo[e]azulene] has a Ki of 42.7 nM.

Source: US8513238B2 (Hoffmann-La Roche Inc., priority 2010, dated 2013)
